Experimental data: patent publication US4812465A, “Triazole derivatives for use as antimycotic agents” (CL Pharma Aktiengesellschaft, priority 1986, dated 1989)

Assays:
[1] = test system: Trichophyton rubrum; assay: In vitro determination of minimum inhibitory concentration (MIC), serial dilution; format: cell-based; settings: 336 h, pH 6, Trichophyton rubrum, pH 6.0, 22° C., 14 days
Description: (§1) The antimycotic activities of the compounds were measured by in vitro determination of the minimum inhibitory concentration (MIC) for yeasts, molds and dermatophytes.
(§2) 6 dermatophytes, 2 yeasts and 4 molds were used for testing with fungi, as follows:
(§3) The minimum inhibitory concentration (MIC) was determined in serial dilution tests in test tubes. The volume of the liquid nutrient medium in each test tube was 4.5 ml.
(§4) The substances were dissolved in DMSO and diluted with sterile distilled water to 10 concentrations (100, 50, 25, 12.5, 6.25, 3.12, 1.56, 0.78, 0.39 and 0.19 μg/ml). 0.5 ml of each of these dilution steps was added to liquid nutrient medium. Thus, a constant concentration of solvent in all the nutrient media was ensured, irrespective of the active compound concentration.
(§5) A comparison solution which contained only the solvent in appropriate concentration was included when carrying out each of the tests.
(§6) The individual strains were maintained on Sabouraud/beerwort agar slants and, before they were used in a test, they underwent a passage on a modified Sabouraud liquid nutrient medium. The strains were then harvested, washed and converted into a suspension of McFaerland 3 in the case of yeasts and molds and of McFaerland 4-5 in the case of dermatophytes.
(§7) The amount of material inoculated (inoculum) was 100 μl/test tube (inoculated densities: yeasts about 10^3 /ml, molds about 10^4 /ml, dermatophytes about 10^4 /ml). The pH of the liquid nutrient medium was 6.0. After inoculation had taken place the fungi were incubated at 22° C. for 14 days.
(§8) The MIC was then determined. The concentration step at which growth was no longer visible on macroscopic inspection was used for the determination of the MIC. The comparison substance used was 1-(2-(2,4-dichlorophenyl)-2-(2,4-dichlorophenylmethoxy)ethyl)-1H-imidazole(compound A).

[2] = test system: Trichophyton verrucosum; assay: as above; format: cell-based; settings: 336 h, pH 6, Trichophyton verrucosum, pH 6.0, 22° C., 14 days
Description: as §1, §2, §3, §4, §5, §6, §7, §8

[3] = test system: Mucor mucedo plus; assay: as above; format: cell-based; settings: Mucor mucedo, 336 h, pH 6, Mucor mucedo plus; pH 6.0, 22° C., 14 days
Description: as §1, §2, §3, §4, §5, §6, §7, §8

[4] = test system: Epidermophyton floccosum; assay: as above; format: cell-based; settings: 336 h, pH 6, Epidermophyton floccosum, pH 6.0, 22° C., 14 days
Description: as §1, §2, §3, §4, §5, §6, §7, §8

[5] = test system: Absidia ramosa; assay: as above; format: cell-based; settings: Lichtheimia ramosa, 336 h, pH 6, Absidia ramosa; pH 6.0, 22° C., 14 days
Description: as §1, §2, §3, §4, §5, §6, §7, §8

[6] = test system: Microsporum canis; assay: as above; format: cell-based; settings: 336 h, pH 6, Microsporum canis, pH 6.0, 22° C., 14 days
Description: as §1, §2, §3, §4, §5, §6, §7, §8

[7] = test system: Candida albicans; assay: as above; format: cell-based; settings: 336 h, pH 6, Candida albicans, pH 6.0, 22° C., 14 days, read-out: MIC C.alb
Description: as §1, §2, §3, §4, §5, §6, §7, §8

[8] = test system: Candida tropicalis; assay: as above; format: cell-based; settings: 336 h, pH 6, Candida tropicalis, pH 6.0, 22° C., 14 days, read-out: MIC C.trop
Description: as §1, §2, §3, §4, §5, §6, §7, §8

[9] = test system: Aspergillus fumigatus; assay: as above; format: cell-based; settings: 20160 min, pH 6
Description: as §1, §2, §3, §4, §5, §6, §7, §8

[10] = test system: Trichophyton mentagrophytes; assay: as above; format: cell-based; settings: 336 h, pH 6, Trichophyton mentagrophytes, pH 6.0, 22° C., 14 days
Description: as §1, §2, §3, §4, §5, §6, §7, §8

[11] = test system: Microsporum gypseum; assay: as above; format: cell-based; settings: Nannizzia gypsea, 336 h, pH 6, Microsporum gypseum; pH 6.0, 22° C., 14 days; read-out: MIC Mi.gyp
Description: as §1, §2, §3, §4, §5, §6, §7, §8

[12] = test system: Mucor mucedo minus; assay: as above; format: cell-based; settings: Mucor mucedo, 336 h, pH 6, Mucor mucedo minus; pH 6.0, 22° C., 14 days
Description: as §1, §2, §3, §4, §5, §6, §7, §8

[13] = Determination of the LD50 by i.v. administration; format: in vivo; settings: in vivo, iv
Description: (§9) Determination of the LD50 of 1-(2-(2,4-dichlorophenyl)-2-(3-(4-chlorophenylthio)propylamino)ethyl)-1H-imidazole dihydrochloride (compound No. 96) in mice and rats by i.v. administration. In each case, 0 (0.9% NaCl solution), 12.5, 25.0, 50.0 and 100 mg/kg of body weight were injected i.v. into 5 groups of female and male animals.
(§10) The following clinical signs were observed.

[14] = test system: rats; assay: Determination of the LD50 by i.v. administration; format: in vivo; settings: i.v. 12.5-100 mg/kg
Description: as §9, §10

[15] = test system: mice; assay: Determination of the LD50 by i.v. administration; format: in vivo; settings: i.v. 12.5-100 mg/kg
Description: as §9, §10

[16] = test system: rats; assay: Determination of the lethal dose on single oral administration; format: in vivo; settings: for LD100: oral, once
Description: (§11) Determination of the lethal dose of 1-(2-(2,4-dichlorophenyl)-2-(3-(4-chlorophenylthio)propylamino)ethyl)-1H-imidazole dihydrochloride (compound No. 96) in mice and rats on administration once.
(§12) In each case, oral doses of 0, 500, 1,000 and 3,000 mg/kg of body weight were administered to four groups of female and male animals.
(§13) (Control: double-distilled water)
as §10

[17] = test system: mice; assay: as above; format: in vivo; settings: for LD100: oral, once
Description: as §11, §12, §13, §10

[18] = test system: Salmonella typhimurium strains TA 1535, TA 1537, TA 1538, TA 98 and TA 100; assay: Potential to cause gene mutations in Salmonella typhimurium; format: cell-based; settings: 3.3-1,000 μg/plate
Description: Compound No. 96 was investigated for its potential to cause gene mutations in five Salmonella typhimurium strains TA 1535, TA 1537, TA 1538, TA 98 and TA 100.
The following concentrations were tested, both with metabolic activator (S 9 mix) and without metabolic activator.

[19] = oral 0, 500, 1,000 and 3,000 mg/kg

Which MIC [1] does the source give for `Cl.Cl.Clc1ccc(SCCCNC(Cn2ccnc2)c2ccc(Cl)cc2Cl)cc1` (centres unmarked) [Compound 96, 1-(2-(2,4-dichlorophenyl)-2-(3-(4-chlorophenylthio)propylamino)ethyl)-1H-imidazole dihydrochloride] here?
Its MIC is 0.19 µg/mL.

What about the MIC [2] of the same compound?
The MIC was 0.39 µg/mL.

What about the MIC [3] of the same compound?
Its MIC is 1.56 µg/mL.

What about the MIC [4] of the same compound?
Its MIC is 0.19 µg/mL.

And the MIC [5]?
Its MIC is 1.56 µg/mL.

What about the MIC [6] of the same compound?
Its MIC is 0.39 µg/mL.

What about the MIC [7] of the same compound?
Its MIC is 0.39 µg/mL.

And the MIC [8]?
The MIC was 0.78 µg/mL.

What about the “MIC Asp.fu.” value [9] of the same compound?
Its value is 0,78 μg/ml.

What about the MIC [10] of the same compound?
The MIC was 0.39 µg/mL.

What about the MIC [11] of the same compound?
The MIC was 0.39 µg/mL.

What about the MIC [12] of the same compound?
The MIC was 1.56 µg/mL.

What about the LD50 ([13]; mouse, mice, female, range in parentheses) of the same compound?
Its LD50 is 84.1 mg/kg.

What about the LD50 ([13]; mouse, mice, male, range in parentheses) of the same compound?
Its LD50 is 42 mg/kg.

What about the LD50 ([13]; rat, rats, female, range in parentheses) of the same compound?
The LD50 was 56.1 mg/kg.

What about the LD50 ([13]; rat, rats, male) of the same compound?
Its LD50 is 70.7 mg/kg.

And the clinical signs [14]?
The clinical signs was “Inactivity, necrotic tail, convulsions”.

What about the clinical signs [15] of the same compound?
The clinical signs was “Inactivity, necrotic tail”.

And the LD100 ([16]; female)?
The LD100 was greater than 500 mg/kg.

What about the LD100 ([16]; male) of the same compound?
Its LD100 is > 1,000 mg/kg.

What about the clinical signs [16, 19] of the same compound?
The clinical signs was “Inactivity, ruffled fur, convulsions”.

And the LD100 ([17]; female)?
The LD100 was > 1,000 mg/kg.

And the LD100 ([17]; male)?
Its LD100 is greater than 500 mg/kg.

What about the clinical signs [17, 19] of the same compound?
Its clinical signs is “Inactivity, convulsions”.

And the mutagenic activity ([18]; with metabolic activator (S 9 mix))?
The mutagenic activity was “No mutagenic activity whatever was observed”.

What about the mutagenic activity ([18]; without metabolic activator) of the same compound?
The mutagenic activity was “No mutagenic activity whatever was observed”.
